Counter-ions that a name gives are not always drawn.
Biological target: human LOXL2 (Homo sapiens (Human), UniProt Q9Y4K0)
Test: Human LOXL2 amine oxidase activity assay (Amplex Red)
Assay type: biochemical
Settings: concentrated conditioned media from CHO cells stably expressing human LOXL2; 2 h at 37° C. with compound; DAP substrate
Method: Example B-1: Human LOXL2 Amine Oxidase Activity Assay
LOXL2 amine oxidase activity is evaluated by measuring Amplex Red fluorescence using 10-20× concentrated conditioned media from CHO cells stably expressing human LOXL2. To assay for amine oxidase activity, 10 μL of the concentrated conditioned media is incubated with 2 μL of test compound in DMSO and 73 μL Assay Buffer (50 mM Borate Buffer, pH8) for 2 h at 37° C. After the 2 h incubation, 5 ul of 10 mM 1,5-Diaminopentane (DAP) diluted in Assay Buffer and 10 μl of Amplex Red Mix (8.5 μl Assay Buffer+0.5 μl of 10 mM Amplex Red+1 μl of 500 U/ml Horseradish Peroxidase) are added and the plate mixed and immediately placed on the FlexStaion for fluorescence measurements. Fluorescence is read in kinetic mode every 2 min for 1 hour at excitation=544 and emission=590. The amine oxidase activity is calculated from the slope of the linear portion of the curve.

Sequence of human LOXL2 (Q9Y4K0 26-774): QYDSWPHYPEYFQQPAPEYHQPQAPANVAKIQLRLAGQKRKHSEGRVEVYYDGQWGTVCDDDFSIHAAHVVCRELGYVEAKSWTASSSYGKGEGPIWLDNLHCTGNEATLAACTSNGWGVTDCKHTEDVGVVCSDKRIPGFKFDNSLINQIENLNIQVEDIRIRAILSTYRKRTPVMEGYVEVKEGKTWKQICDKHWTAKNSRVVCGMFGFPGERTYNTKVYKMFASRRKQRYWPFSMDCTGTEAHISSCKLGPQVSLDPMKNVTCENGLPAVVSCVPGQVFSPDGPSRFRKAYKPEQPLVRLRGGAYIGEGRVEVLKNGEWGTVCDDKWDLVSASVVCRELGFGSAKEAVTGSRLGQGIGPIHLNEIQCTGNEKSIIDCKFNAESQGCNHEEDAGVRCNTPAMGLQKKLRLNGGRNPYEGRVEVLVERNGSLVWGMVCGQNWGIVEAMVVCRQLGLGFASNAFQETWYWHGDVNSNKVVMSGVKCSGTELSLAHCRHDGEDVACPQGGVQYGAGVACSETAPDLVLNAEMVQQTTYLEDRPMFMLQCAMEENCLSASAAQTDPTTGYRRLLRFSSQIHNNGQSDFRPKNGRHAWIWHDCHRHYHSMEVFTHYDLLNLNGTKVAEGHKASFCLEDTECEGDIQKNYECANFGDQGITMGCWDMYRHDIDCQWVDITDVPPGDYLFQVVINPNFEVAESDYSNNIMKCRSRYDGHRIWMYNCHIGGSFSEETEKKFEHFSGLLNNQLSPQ

In the case of `NCc1cc(Oc2cccc(-c3ccccc3)c2)nc(C(F)(F)F)c1` [Compound 1-2, (2-([1,1′-Biphenyl]-3-yloxy)-6-(trifluoromethyl)pyridin-4-yl)methanamine trifluoroacetate], the IC50 is reported as less than 300 nM.

With `COc1cc(Oc2cc(CN)cc(C(F)(F)F)n2)cc(C(=O)N2C[C@@H](O)[C@H](F)C2)c1` (racemic) [Compound 1-232, Racemic-trans-(3-((4-(aminomethyl)-6-(trifluoromethyl)pyridin-2-yl)oxy)-5-methoxyphenyl)(3-fluoro-4-hydroxypyrrolidin-1-yl)methanone hydrochloride] the IC50 was 300 to 1000 nM.

With `NCc1cc(Oc2cccc(C(=O)N3CC[C@H](F)C3)c2)nc(C(F)(F)F)c1` [Compound 1-213, (S)-(3-((4-(Aminomethyl)-6-(trifluoromethyl)pyridin-2-yl)oxy)phenyl)(3-fluoropyrrolidin-1-yl)methanone hydrochloride] the IC50 was less than 300 nM.

In the case of “N′-(4-(Aminomethyl)-6-(trifluoromethyl)pyridin-2-yl)-N^3-(2-(methylsulfonyl)ethyl)isophthalamide trifluoroacetate [Compound 1-242]”, the IC50 is reported as less than 300 nM.

Compound `Cc1cc(=O)oc2cc(NC(=O)c3cccc(Oc4cc(CN)cc(C(F)(F)F)n4)c3)ccc12` [Compound 1-249, 3-((4-(Aminomethyl)-6-(trifluoromethyl)pyridin-2-yl)oxy)-N-(4-methyl-2-oxo-2H-chromen-7-yl)benzamide hydrochloride] has an IC50 of less than 300 nM.

For `NCc1cc(O[C@H]2CCCN(C(=O)Nc3ccccc3)C2)nc(C(F)(F)F)c1` [Compound 1-44, (S)-3-((4-(Aminomethyl)-6-(trifluoromethyl)pyridin-2-yl)oxy)-N-phenylpiperidine-1-carboxamide trifluoroacetate], the IC50 was less than 300 nM.

In the case of `NCc1cc(Oc2cccc(C(=O)N3C[C@@H](F)[C@@H](O)C3)c2)nc(C(F)(F)F)c1` (racemic) [Compound 1-211, Racemic-cis-(3-((4-(aminomethyl)-6-(trifluoromethyl)pyridin-2-yl)oxy)phenyl)(3-fluoro-4-hydroxypyrrolidin-1-yl)methanone hydrochloride], the IC50 is reported as less than 300 nM.

In the case of `NCc1cc(-c2cccnc2)nc(C(F)(F)F)c1` [Compound 1-1, (6-(Trifluoromethyl)-[2,3′-bipyridin]-4-yl)methanamine trifluoroacetate], the IC50 is reported as less than 300 nM.

`NCc1cc(Oc2cccc(C(=O)N3CCC[C@H](CO)C3)c2)nc(C(F)(F)F)c1` [Compound 1-203, (S)-(3-((4-(Aminomethyl)-6-(trifluoromethyl)pyridin-2-yl)oxy)phenyl)(3-(hydroxymethyl)piperidin-1-yl)methanone hydrochloride] gave an IC50 of less than 300 nM.

In the case of “N′-(4-(Aminomethyl)-6-(trifluoromethyl)pyridin-2-yl)-N^3-phenylisophthalamide trifluoroacetate [Compound 1-240]”, the IC50 is reported as less than 300 nM.

For `CC(=O)N1CCC2(CC(Oc3cc(CN)cc(C(F)(F)F)n3)C2)C1` (centres unmarked) [Compound 1-244, 1-(2-((4-(Aminomethyl)-6-(trifluoromethyl)pyridin-2-yl)oxy)-6-azaspiro[3.4]octan-6-yl)ethanone hydrochloride], the IC50 was 300 to 1000 nM.

Work on `NCc1cc(Oc2cccc(C(=O)N3CC[C@@H](CO)C3)c2)nc(C(F)(F)F)c1` [Compound 1-26, (R)-(3-((4-(Aminomethyl)-6-(trifluoromethyl)pyridin-2-yl)oxy)phenyl)(3-(hydroxymethyl)pyrrolidin-1-yl)methanone hydrochloride] yielded an IC50 of less than 300 nM.

Compound `NCc1cc(O[C@@H]2CCN(C(=O)Nc3ccccc3)C2)nc(C(F)(F)F)c1` [Compound 1-39, (R)-3-((4-(Aminomethyl)-6-(trifluoromethyl)pyridin-2-yl)oxy)-N-phenylpyrrolidine-1-carboxamide trifluoroacetate] has an IC50 of less than 300 nM.

With `NCc1cc(OCC2CCN(C(=O)Nc3ccccc3)CC2)nc(C(F)(F)F)c1` [Compound 1-42, 4-(((4-(Aminomethyl)-6-(trifluoromethyl)pyridin-2-yl)oxy)methyl)-N-phenylpiperidine-1-carboxamide trifluoroacetate] the IC50 was less than 300 nM.

`NCc1cc(Sc2cccc(C(=O)Nc3ccccc3)c2)nc(C(F)(F)F)c1` [Compound 1-68, 3-((4-(Aminomethyl)-6-(trifluoromethyl)pyridin-2-yl)thio)-N-phenylbenzamide hydrochloride] gave an IC50 of less than 300 nM.

With `CN(C(=O)Cn1ccc2c(Oc3cc(CN)cc(C(F)(F)F)n3)cccc21)c1ccccc1` [Compound 1-38, 2-(4-((4-(Aminomethyl)-6-(trifluoromethyl)pyridin-2-yl)oxy)-1H-indol-1-yl)-N-methyl-N-phenylacetamide hydrochloride] the IC50 was less than 300 nM.

In the case of `C#C[C@@H](CC(=O)O)NC(=O)c1cccc(Oc2cc(CN)cc(C(F)(F)F)n2)c1` [Compound 1-223, (R)-3-(3-((4-(aminomethyl)-6-(trifluoromethyl)pyridin-2-yl)oxy)benzamido)pent-4-ynoic acid hydrochloride], the IC50 is reported as 300 to 1000 nM.

For `NCc1cc(Oc2cccc(C(=O)N3CCc4ccccc4C3)c2)nc(C(F)(F)F)c1` [Compound 1-11, (3-((4-(Aminomethyl)-6-(trifluoromethyl)pyridin-2-yl)oxy)phenyl)(3,4-dihydroisoquinolin-2(1H)-yl)methanone hydrochloride], the IC50 was less than 300 nM.

Work on `NCc1cc(O[C@H]2CCCN(C(=O)Cc3ccc(Cl)c(Cl)c3)C2)nc(C(F)(F)F)c1` [Compound 1-47, (S)-1-(3-((4-(Aminomethyl)-6-(trifluoromethyl)pyridin-2-yl)oxy)piperidin-1-yl)-2-(3,4-dichlorophenyl)ethanone trifluoroacetate] yielded an IC50 of less than 300 nM.

With `CC1(O)CCN(C(=O)c2cccc(Oc3cc(CN)cc(C(F)(F)F)n3)c2)CC1` [Compound 1-205, (3-((4-(Aminomethyl)-6-(trifluoromethyl)pyridin-2-yl)oxy)phenyl)(4-hydroxy-4-methylpiperidin-1-yl)methanone hydrochloride] the IC50 was less than 300 nM.

Compound `Cc1cc(=O)n(Cc2cc(CN)cc(C(F)(F)F)n2)c(=O)n1CCO` [Compound 1-135, 3-((4-(Aminomethyl)-6-(trifluoromethyl)pyridin-2-yl)methyl)-1-(2-hydroxyethyl)-6-methylpyrimidine-2,4(1H,3H)-dione hydrochloride] has an IC50 greater than 1000 nM.

In the case of `NCc1cc(Oc2cccc(C(=O)N3CC4(CCOCC4)C3)c2)nc(C(F)(F)F)c1` [Compound 1-207, (3-((4-(Aminomethyl)-6-(trifluoromethyl)pyridin-2-yl)oxy)phenyl)(7-oxa-2-azaspiro[3.5]nonan-2-yl)methanone hydrochloride], the IC50 is reported as less than 300 nM.

With `NCc1cc(Oc2cc(O)cc(C(=O)N3C[C@@H](O)[C@H](F)C3)c2)nc(C(F)(F)F)c1` (racemic) [Compound 1-230, Racemic-trans-(3-((4-(aminomethyl)-6-(trifluoromethyl)pyridin-2-yl)oxy)-5-hydroxyphenyl)(3-fluoro-4-hydroxypyrrolidin-1-yl)methanone hydrochloride] the IC50 was less than 300 nM.

Compound `NCc1cc(Oc2cccc(C(=O)N3CC=CC3)c2)nc(C(F)(F)F)c1` [Compound 1-215, (3-((4-(Aminomethyl)-6-(trifluoromethyl)pyridin-2-yl)oxy)phenyl)(2,5-dihydro-1H-pyrrol-1-yl)methanone hydrochloride] has an IC50 of less than 300 nM.

In the case of `NCc1cc(Oc2cccc(Nc3ccccc3)c2)nc(C(F)(F)F)c1` [Compound 1-5, 3-((4-(Aminomethyl)-6-(trifluoromethyl)pyridin-2-yl)oxy)-N-phenylaniline], the IC50 is reported as less than 300 nM.

`NCc1cc(Oc2cccc(C(=O)O)c2)nc(C(F)(F)F)c1` [Compound 1-224, 3-((4-(Aminomethyl)-6-(trifluoromethyl)pyridin-2-yl)oxy)benzoic acid hydrochloride] showed an IC50 of 300 to 1000 nM.

For `NCc1cc(Oc2cccc(C(=O)N3CCC[C@H]3C(=O)O)c2)nc(C(F)(F)F)c1` [Compound 1-24, (S)-1-(3-((4-(Aminomethyl)-6-(trifluoromethyl)pyridin-2-yl)oxy)benzoyl)pyrrolidine-2-carboxylic acid hydrochloride], the IC50 was greater than 1000 nM.

Work on `NCc1cc(NCc2cccc(C(=O)N3CC[C@H](O)C3)c2)nc(C(F)(F)F)c1` [Compound 1-237, (S)-(3-(((4-(Aminomethyl)-6-(trifluoromethyl)pyridin-2-yl)amino)methyl)phenyl)(3-hydroxypyrrolidin-1-yl)methanone hydrochloride] yielded an IC50 of 300 to 1000 nM.

`Cc1cc(=O)n(Cc2cc(CN)cc(C(F)(F)F)n2)c(=O)n1Cc1ccncn1` [Compound 1-243, 3-((4-(Aminomethyl)-6-(trifluoromethyl)pyridin-2-yl)methyl)-6-methyl-1-(pyrimidin-4-ylmethyl)pyrimidine-2,4(1H,3H)-dione hydrochloride] gave an IC50 of 300 to 1000 nM.

For `COC(=O)c1cccc(C(=O)Nc2cc(CN)cc(C(F)(F)F)n2)c1` [Compound 1-238, Methyl 3-((4-(aminomethyl)-6-(trifluoromethyl)pyridin-2-yl)carbamoyl)benzoate trifluoroacetate], the IC50 was less than 300 nM.

`CN(CCO)C(=O)c1cccc(Oc2cc(CN)cc(C(F)(F)F)n2)c1` [Compound 1-202, 3-((4-(Aminomethyl)-6-(trifluoromethyl)pyridin-2-yl)oxy)-N-(2-hydroxyethyl)-N-methylbenzamide hydrochloride] gave an IC50 of less than 300 nM.

Work on `NCc1cc(OC2CCN(C(=O)Nc3ccccc3)CC2)nc(C(F)(F)F)c1` [Compound 1-41, 4-((4-(Aminomethyl)-6-(trifluoromethyl)pyridin-2-yl)oxy)-N-phenylpiperidine-1-carboxamide trifluoroacetate] yielded an IC50 of 300 to 1000 nM.

— patent publication US11072585B2 (PharmAkea, Inc., priority 2015, dated 2021)
